One data set deals with T1, human amylin receptor (Homo sapiens, UniProt O60896+P30988).
T1 construct: host or cells: CHO-K1/Ga15/AMY3 cells, further stably transfected with a CRE-luciferase plasmid
T1 sequence (P30988 25-474): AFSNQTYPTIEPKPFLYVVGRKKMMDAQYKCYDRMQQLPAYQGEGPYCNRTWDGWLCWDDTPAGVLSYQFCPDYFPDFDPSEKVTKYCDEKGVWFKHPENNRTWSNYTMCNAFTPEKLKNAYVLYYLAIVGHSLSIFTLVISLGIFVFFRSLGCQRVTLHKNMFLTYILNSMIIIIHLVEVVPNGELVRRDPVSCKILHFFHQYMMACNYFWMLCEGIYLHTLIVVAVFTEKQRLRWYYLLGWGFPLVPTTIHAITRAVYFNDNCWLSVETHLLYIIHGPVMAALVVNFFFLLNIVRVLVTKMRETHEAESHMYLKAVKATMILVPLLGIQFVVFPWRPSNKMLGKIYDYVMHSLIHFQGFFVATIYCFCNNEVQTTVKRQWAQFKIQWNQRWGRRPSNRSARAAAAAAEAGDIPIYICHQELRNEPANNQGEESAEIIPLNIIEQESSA
T1 sequence (O60896 24-148 partner): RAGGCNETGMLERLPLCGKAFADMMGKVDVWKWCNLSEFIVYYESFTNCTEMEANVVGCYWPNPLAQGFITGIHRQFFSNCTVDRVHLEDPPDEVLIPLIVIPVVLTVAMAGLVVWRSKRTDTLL
The data set can be described thus: Luciferase assay of amylin derivatives in amylin receptor/CRE-luc CHO cell line. Particulars: CHO-K1/Ga15/AMY3 CRE-luc cells, 24 hours incubation, F12 medium containing 10% FBS; read-out: EC50. It counts as cell-based.

The nature of data set [1]: Freeze-thaw stability of derivatives (freeze-thaw yield by liquid chromatography). It counts as physicochemical. Particulars: for Dissolution property: appearance after dissolution at 0.2 mg/ml in 20 mM phosphate buffer solution (PB) (pH 7.0); for Freeze storage property: appearance after overnight storage at −20° C. and thawing to room temperature, 0.2 mg/ml in 20 mM PB (pH 7.0); for Freeze storage yield: concentration of polypeptide after freezing and thawing / concentration before, by liquid chromatography, −20° C. overnight. In short, it runs like this:
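Freeze-thaw yield is the ratio of peptide concentration after versus before one overnight −20° C freeze and room-temperature thaw, both quantified by RP-HPLC of supernatant after centrifugation. Samples were 0.2 mg/ml freeze-dried derivative in 20 mM PB, pH 7.0.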

Numbered stars: 1 amine (or outer) side, 2 acyl side, 3 side chain; on linkers, the order of the positions; unused ones are H or OH. Bridge positions count the residues as written; N and C are the ends. Square brackets hold non-standard residues; d marks the D form. Side chains are listed from the residue outwards. Peptide text beside a SMILES is read from it. * marks the point of attachment. C20 diacid = O=C(O)CCCCCCCCCCCCCCCCCCC(=O)*; γGlu = O=C(O)[C@H](CCC(=O)[*:2])N[*:1]; Orn = NCCC[C@H](N)C(=O)O

Procedure for human amylin receptor: The experiment was intended to detect the activity or efficacy of the amylin derivatives on a human amylin receptor in vitro by luciferase assay.
50 μL of growth medium (F12 medium containing 10% FBS) was added into each well of a white 96-well plate, and the stably transfected amylin/CRE-lue CHO cells were inoculated into the white 96-well plate at a density of about 20,000 cells/well for activity determination.

One may read the EC50 as the concentration needed to bring the measured effect to its halfway point. Consider `CC[C@H](C)[C@H](NC(=O)[C@@H]1CCCN1C(=O)[C@H](CCCCNC(=O)CC[C@H](NC(=O)CCCCCCCCCCCCCCCCCCC(=O)O)C(=O)O)NC(=O)[C@H](CC(C)C)NC(=O)[C@H](CC(N)=O)NC(=O)[C@H](CC(N)=O)NC(=O)[C@H](CO)NC(=O)[C@H](CO)NC(=O)[C@H](Cc1c[nH]cn1)NC(=O)[C@H](CCCN)NC(=O)[C@H](CC(C)C)NC(=O)[C@H](Cc1ccccc1)NC(=O)[C@H](CCC(=O)O)NC(=O)[C@H](C)NC(=O)[C@H](CC(C)C)NC(=O)[C@H](CCCNC(=N)N)NC(=O)[C@H](CCC(N)=O)NC(=O)[C@@H](NC(=O)[C@H](C)NC(=O)[C@@H]1CSSC[C@H](NC(=O)[C@@H](N)CCCNC(=N)N)C(=O)N[C@@H](CC(N)=O)C(=O)N[C@@H]([C@@H](C)O)C(=O)N[C@@H](C)C(=O)N[C@@H]([C@@H](C)O)C(=O)N1)[C@@H](C)O)C(=O)N[C@@H](CC(C)C)C(=O)N1CCC[C@H]1C(=O)N1CCC[C@H]1C(=O)N[C@H](C(=O)N[C@@H](CC(N)=O)C(=O)N[C@H](C(=O)NCC(=O)N[C@@H](CO)C(=O)N[C@@H](CC(N)=O)C(=O)N[C@H](C(=O)N1CCC[C@H]1C(N)=O)[C@@H](C)O)C(C)C)[C@@H](C)O` [PD046] (H-RCNTATCATQRLAEFL[Orn]HSSNNLK([γGlu-C20 diacid])PILPPTNVGSNTP-NH2; disulfide 2-7 (inferred); N-terminus assumed), for which the EC50 on human amylin receptor was determined as 1.68 nM. In data set [1], the Dissolution property entry is reported as “Clear”, the Freeze storage property result is given as “Clear” and the Freeze storage yield is given as 101.35%.
Take `CC[C@H](C)[C@H](NC(=O)[C@@H]1CCCN1C(=O)CNC(=O)[C@H](Cc1ccccc1)NC(=O)[C@H](CC(N)=O)NC(=O)[C@H](CC(N)=O)NC(=O)[C@H](CO)NC(=O)[C@H](CO)NC(=O)[C@H](Cc1c[nH]cn1)NC(=O)[C@H](CCCNC(=N)N)NC(=O)[C@H](CC(C)C)NC(=O)[C@H](Cc1ccccc1)NC(=O)[C@H](CCC(=O)O)NC(=O)[C@H](C)NC(=O)[C@H](CC(C)C)NC(=O)[C@H](CCCNC(=N)N)NC(=O)[C@H](CCC(N)=O)NC(=O)[C@@H](NC(=O)[C@H](C)NC(=O)[C@@H]1CSSC[C@H](NC(=O)[C@@H](N)CCCCNC(=O)CC[C@H](NC(=O)CCCCCCCCCCCCCCCCCCC(=O)O)C(=O)O)C(=O)N[C@@H](CC(N)=O)C(=O)N[C@@H]([C@@H](C)O)C(=O)N[C@@H](C)C(=O)N[C@@H]([C@@H](C)O)C(=O)N1)[C@@H](C)O)C(=O)N[C@@H](CC(C)C)C(=O)N1CCC[C@H]1C(=O)N1CCC[C@H]1C(=O)N[C@H](C(=O)N[C@@H](CC(N)=O)C(=O)N[C@H](C(=O)NCC(=O)N[C@@H](CO)C(=O)N[C@@H](CC(N)=O)C(=O)N[C@H](C(=O)N1CCC[C@H]1C(N)=O)[C@@H](C)O)C(C)C)[C@@H](C)O` [PD066]: the concentration giving a half-maximal response (EC50) on human amylin receptor was determined as 0.044 nM. In data set [1], the Dissolution property entry is “Clear”, the Freeze storage property entry is reported as “Clear” and the Freeze storage yield is listed as 93.44%.

Values taken from US20260166128A1, “HUMAN AMYLIN ANALOG, AND DERIVATIVE THEREOF AND USE THEREOF” (priority 2022, published 2026).
